Experimental data: patent US20100311803A1, “METHOD FOR REDUCING INFLAMMATORY RESPONSES AND INFLAMMATION” (Adelaide Research & Innovation Pty Ltd, priority 2006, published 2010)

How the values were obtained:
serum interleukin 6 = assay: Serum IL-6 levels (ELISA) after systemic insult (trauma; trauma plus hypoxia and hypotension); format: in vivo, rat; settings: 10^−5 mol/kg i.v. 30 minutes after the insult
Protocol: A whole variety of severe insults are capable of triggering a systemic inflammatory response, and subsequent shock reaction. Two approaches were used in these studies, namely trauma (diffuse axonal injury), and an extended period of hypoxia and hypotension. N-acetyl-L-tryptophan was administered intravenously 30 minutes after the insult, whilst control animals received drug vehicle alone. A systemic inflammatory response, generated as a result of these triggers, was determined by a rise in serum interleukin 6 levels. Blood samples were collected at 6 hours after the insult. Changes in serum IL-6 levels were quantified using an enzyme-linked immunosorbent assay (ELISA). In order to examine the effects of an NK1 antagonist on the systemic inflammatory response, N-acetyl-L-tryptophan was administered intravenously at a dose of 10^−5 mol/kg 30 minutes after the insult. Serum levels of IL-6 were compared between animals that were not subject to any insult (sham), animals subject to an insult and then administered drug vehicle alone (control), and animals subject to an insult and administered a substance P receptor antagonist (NK1). IL-6 levels were determined following trauma (FIG. 5), and trauma followed by 15 minutes of hypoxia and hypotension (FIG. 6).

[1] = Functional outcome and mortality of brain-injured animals; format: in vivo, rat; settings: brain injury; administered after injury
Protocol: (§1) We chose to use the compound N-acetyl-L-tryptophan. To induce a primary brain injury a rat model of diffuse axonal injury was used (Heath D L and Vink R (1997). Magnesium sulphate improves neurologic outcome following severe closed head injury in rats. Neurosci Lett; 228: 175-8). N-acetyl-L-tryptophan was then administered intravenously 30 minutes after injury, whilst control animals received drug vehicle alone.
In order to examine the effects on the cellular inflammatory response, N-acetyl-L-tryptophan was administered intravenously at a dose of 10^−5 mol/kg after injury.

IL-1β mRNA = IL-1β mRNA expression in brain tissue after brain injury (RT-PCR); format: in vivo, rat; settings: 10^−5 mol/kg i.v. 30 minutes after injury; brain tissue at 6 hours after injury; normalised to rpL32 (FIG. 2)
Protocol: (§2) In order to examine the effects on the cellular inflammatory response, N-acetyl-L-tryptophan was administered intravenously at a dose of 10^−5 mol/kg after injury. The expression of mRNA for the inflammatory cytokines IL-1β, IL-6 and TNFα in brain tissue was determined by reverse transcription followed by a polymerase chain reaction (RT-PCR). mRNA levels were normalised with respect to expression of rpL32. Brain tissue samples were collected at 6 hours after injury. Levels of expression of mRNA for the inflammatory cytokines were compared in non-injured animals (sham), injured animals administered drug vehicle alone (control), and injured animals administered a substance P receptor antagonist (NK1). mRNA expression was determined for IL-1β (FIG. 2), IL-6 (FIG. 3) and TNFα (FIG. 4).

TNFα mRNA = TNFα mRNA expression in brain tissue after brain injury (RT-PCR); format: in vivo, rat; settings: 10^−5 mol/kg i.v. 30 minutes after injury; brain tissue at 6 hours after injury; normalised to rpL32 (FIG. 4)
Protocol: as §2

IL-6 mRNA = IL-6 mRNA expression in brain tissue after brain injury (RT-PCR); format: in vivo, rat; settings: 10^−5 mol/kg i.v. 30 minutes after injury; brain tissue at 6 hours after injury; normalised to rpL32 (FIG. 3)
Protocol: as §2

[2] = Functional outcome and recovery after trauma or trauma plus hypoxia and hypotension; format: in vivo, rat; settings: either trauma, or trauma plus hypoxia and hypotension
Protocol: A whole variety of severe insults are capable of triggering a systemic inflammatory response, and subsequent shock reaction. Two approaches were used in these studies, namely trauma (diffuse axonal injury), and an extended period of hypoxia and hypotension. N-acetyl-L-tryptophan was administered intravenously 30 minutes after the insult, whilst control animals received drug vehicle alone. […] This level of recovery was never seen in the non-treated animals.

[3] = Evan's blue leakage into brain tissue (blood brain barrier) after diffuse axonal brain injury; format: in vivo; settings: rat diffuse axonal injury
Protocol: as §1

CC(=O)N[C@@H](Cc1c[nH]c2ccccc12)C(=O)O [N-acetyl-L-tryptophan]
serum IL-6 levels with respect to sham animals (serum interleukin 6; trauma (diffuse axonal injury), blood at 6 hours (FIG. 5)): no significant differences | serum IL-6 levels with respect to sham animals (serum interleukin 6; trauma followed by 15 minutes of hypoxia and hypotension, blood at 6 hours (FIG. 6)): no significant differences | functional outcome of the injured animals (motor, cognitive and behavioural outcomes) [1]: significantly improved | mortality [1]: significant reduction | expression of IL-1β mRNA in brain tissue with respect to non-injured animals (IL-1β mRNA): no significant differences | expression of TNFα mRNA in brain tissue with respect to non-injured animals (TNFα mRNA): no significant differences | expression of IL-6 mRNA in brain tissue with respect to non-injured animals (IL-6 mRNA): no significant differences | time to normal physiological (spontaneous breathing) and behavioural (feeding and grooming) responses after treatment [2]: ≤ 60 minutes | functional outcome of the animals ([2]; i.v. 30 minutes after the insult): significantly improved | closure of the blood-brain barrier, dependence on dose ([3]; intravenously 30 minutes after injury (FIG. 1)): dose-dependent manner | leakage of Evan's blue dye into the brain tissue (closure of the blood brain barrier) ([3]; intravenously 30 minutes after injury, vs vehicle control (FIG. 1)): reduced leakage
